Like-named read-outs stand apart in the source and are kept apart here.
Biological target: T1, hVAChT (Homo sapiens, UniProt Q16572)
T1 sequence (Q16572 1-532): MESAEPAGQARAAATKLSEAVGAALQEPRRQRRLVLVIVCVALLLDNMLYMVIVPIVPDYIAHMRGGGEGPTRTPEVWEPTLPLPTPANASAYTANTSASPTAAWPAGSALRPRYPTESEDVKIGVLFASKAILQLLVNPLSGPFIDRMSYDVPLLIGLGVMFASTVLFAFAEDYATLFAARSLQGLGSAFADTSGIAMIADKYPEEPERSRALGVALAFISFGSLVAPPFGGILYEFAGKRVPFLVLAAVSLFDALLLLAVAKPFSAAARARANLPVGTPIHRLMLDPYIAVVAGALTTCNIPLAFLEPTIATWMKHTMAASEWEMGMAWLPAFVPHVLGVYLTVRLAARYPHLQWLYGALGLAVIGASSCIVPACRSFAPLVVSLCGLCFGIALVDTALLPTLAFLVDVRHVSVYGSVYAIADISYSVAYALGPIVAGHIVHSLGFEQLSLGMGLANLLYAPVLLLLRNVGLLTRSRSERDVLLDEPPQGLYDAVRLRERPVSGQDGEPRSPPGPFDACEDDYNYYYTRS
Experiment: Competitive binding assay with
Details: for inhibition of (-)-[^3H]TZ659 binding to VAChT: competitive binding studies, other CNS receptor ligands

[1] = radioligand (-)-[^3H]TZ659 2 nM, test ligands 0.1 nM to 10 μM, 60 min, 25 °C

Structure (SMILES) | Ki [µM] | inhibition of (-)-[^3H]TZ659 binding to VAChT | Ki [1] [µM]
CC(C)=CCN1CC[C@]2(C)c3cc(O)ccc3C[C@H]1[C@H]2C [(+)-Pentazocine] | > 1 | No inhibition | 
COc1cc2c(cc1OC)CN(CCCCNC(=O)c1cc(C)ccc1OCCF)CC2 [ISO-1] |  | No inhibition | > 1
COc1ccccc1N1CCN(CC(C(=O)NC(C)(C)C)c2ccccc2)CC1 (stereo not drawn) [WAY-100135] |  | No inhibition | > 1
CCc1cc(Cl)c(OC)c(C(=O)NC[C@@H]2CCCN2CC)c1O [S-(-)-Eticlopride] |  | No inhibition | > 1
Cn1cc(-c2ccncc2)c(-c2ccc(OCc3ccc4ccccc4n3)cc2)n1 [MP-10] |  | No inhibition | > 1
COc1cc2c(cc1OC)[C@H]1C[C@@H](O)[C@H](CC(C)C)CN1CC2 [DTBZ] |  | No inhibition | > 1
